Assay results reported in PubChem BioAssay (NCI).
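Cells were grown in 96-well plates and exposed to each compound for 48 hours at five concentrations; endpoints were interpolated linearly between bracketing concentrations, or set to the highest concentration if not reached. Here, GI50 denotes the concentration required for 50% inhibition of growth. Definition used: TGI = concentration required for complete inhibition of growth.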

How the values were obtained:
Assay in all cases: inhibition of tumour cell growth, NCI panel, 48 h
[1] = test system: A498 renal
[2] = test system: A549 NSCLC
[3] = test system: HCT-116 colon
[4] = test system: IGROV1 ovarian
[5] = test system: LOX IMVI melanoma
[6] = test system: MDA-MB-231 breast
[7] = test system: MOLT-4 leukemia
[8] = test system: OVCAR-8 ovarian
[9] = test system: SK-OV-3 ovarian
[10] = test system: UO-31 renal

## CC(C)(C)[Si](C)(C)OC[C@H](/C=C\CCCC(=O)O)NC1(c2ccccc2)c2ccccc2-c2ccccc21
[1]
  TGI: 32.1 µM
[2]
  TGI: > 100 µM
[3]
  TGI: 44.8 µM
[4]
  TGI: 97 µM
[5]
  TGI: 25.5 µM
[6]
  TGI: 39.3 µM
[7]
  TGI: 33.9 µM
[8]
  TGI: 46.2 µM
[9]
  TGI: 72.8 µM
[10]
  TGI: 34.4 µM

## O=[N+]([O-])/C(C(Cl)=C(Cl)Cl)=C(/Nc1ccccc1)Sc1ccccc1
[1]
  TGI: 38.3 µM
[2]
  TGI: 50.2 µM
[3]
  TGI: 38.4 µM
[4]
  TGI: 48.1 µM
[5]
  TGI: 30.7 µM
[6]
  TGI: 37.6 µM
[7]
  TGI: 46.7 µM
[8]
  TGI: 33.6 µM
[9]
  TGI: 42.9 µM
[10]
  TGI: 27.5 µM

## CCCCC[C@H]1CCCCCCCCCC(=O)OC2C(O[C@@H]3OC(C)[C@H](OC(=O)[C@@H](C)CC)C(O[C@@H]4OC(C)[C@H](O)C(O)[C@@H]4O)[C@@H]3OC(=O)[C@H](C)CC)[C@H](OC3C(O)[C@@H](O)C(C)O[C@H]3O1)OC(CO)[C@H]2O (stereo partly drawn)
[2]
  TGI: 31.2 µM
[3]
  TGI: 29.7 µM
[4]
  TGI: 31.8 µM
[5]
  TGI: 31.4 µM
[6]
  TGI: 30.7 µM
[7]
  TGI: 35.4 µM
[8]
  TGI: 35.5 µM
[9]
  TGI: 29.3 µM
[10]
  TGI: 30.8 µM

## Nc1cc2c3c(cccc3c1)C(=O)N(c1ccc(OCCN3CCCC3)cc1)C2=O
[1]
  TGI: 91.5 µM
[2]
  TGI: 50.8 µM
[3]
  TGI: 40.9 µM
[4]
  TGI: 36.4 µM
[5]
  TGI: 48.5 µM
[6]
  TGI: 57.1 µM
[7]
  TGI: 55.8 µM
[8]
  TGI: 35.8 µM
[9]
  TGI: 42 µM
[10]
  TGI: 28.6 µM

## C(#Cc1ccccc1)SC1=C(c2ccccc2)S/C(=C(\SC#Cc2ccccc2)c2ccccc2)S1
[2]
  TGI: > 100 µM
[3]
  TGI: > 100 µM
[4]
  TGI: > 100 µM
[5]
  TGI: > 100 µM
[6]
  TGI: > 100 µM
[7]
  TGI: > 100 µM
[8]
  TGI: > 100 µM
[9]
  TGI: > 100 µM
[10]
  TGI: > 100 µM

## C=C1CC2[C@H](C)C(=O)CCC2(C)C2=C1C1CCC(C(C)CCC(=C)C(C)C(=O)O)C1(C)CC2=O (stereo partly drawn)
[1]
  TGI: > 100 µM
[2]
  TGI: > 100 µM
[3]
  TGI: > 100 µM
[4]
  TGI: > 100 µM
[5]
  TGI: 33.8 µM
[6]
  TGI: > 100 µM
[7]
  TGI: 63.1 µM
[8]
  TGI: > 100 µM
[9]
  TGI: > 100 µM
[10]
  TGI: 99.4 µM

## COc1ccccc1NC(=S)N/N=C/c1cccc(C)n1
[1]
  TGI: 69.7 µM
[2]
  TGI: 86.9 µM
[3]
  TGI: > 100 µM
[4]
  TGI: > 95.8 µM
[5]
  TGI: > 100 µM
[6]
  TGI: > 100 µM
[7]
  TGI: > 100 µM
[8]
  TGI: > 52.3 µM
[9]
  TGI: > 44.4 µM
[10]
  TGI: > 39.1 µM

## CC[C@@]1(O)C(=O)OCc2c1cc1n(c2=O)Cc2c-1nc1ccccc1c2/C=N\NC(=O)C(N)Cc1c[nH]c2ccccc12 (stereo partly drawn)
[1]
  TGI: 2.76 µM
[2]
  TGI: 25.9 µM
[3]
  TGI: 15.5 µM
[4]
  TGI: > 81.5 µM
[5]
  TGI: 3.27 µM
[6]
  TGI: > 100 µM
[7]
  TGI: 1.18 µM
[8]
  TGI: 25 µM
[9]
  TGI: > 84 µM
[10]
  TGI: 1.48 µM

## NC(=O)Oc1ccccc1
[1]
  TGI: > 100 µM
[2]
  TGI: > 100 µM
[3]
  TGI: > 100 µM
[5]
  TGI: > 100 µM
[6]
  TGI: > 100 µM
[7]
  TGI: > 100 µM
[8]
  TGI: > 100 µM
[9]
  TGI: > 100 µM
[10]
  TGI: > 100 µM

## Cc1ccccc1NC(=O)Cc1csc(N=Nc2c(O)[nH]c3ccccc23)n1
[1]
  TGI: > 100 µM
[2]
  TGI: > 100 µM
[3]
  TGI: > 100 µM
[4]
  TGI: > 100 µM
[5]
  TGI: > 100 µM
[6]
  TGI: > 100 µM
[7]
  TGI: > 100 µM
[8]
  TGI: 43.1 µM
[10]
  TGI: > 100 µM

## CN(C)CCNC(=O)c1c(O)ccc2c1c1c(n2CCc2ccccc2)C(=O)c2ccccc2C1=O
[1]
  TGI: 31.9 µM
[2]
  TGI: 23.2 µM
[3]
  TGI: 10.5 µM
[4]
  TGI: 21.8 µM
[5]
  TGI: 6.93 µM
[6]
  TGI: 15 µM
[7]
  TGI: 16.2 µM
[8]
  TGI: 23.4 µM
[9]
  TGI: 31.5 µM
[10]
  TGI: 13.8 µM

## CCOC(=O)C(C/C=C/CO)N(C)C(=O)OC(C)(C)C (stereo not drawn)
[1]
  TGI: > 100 µM
[2]
  TGI: > 100 µM
[3]
  TGI: > 100 µM
[4]
  TGI: > 100 µM
[5]
  TGI: > 100 µM
[6]
  TGI: > 100 µM
[7]
  TGI: > 100 µM
[8]
  TGI: > 100 µM
[9]
  TGI: > 100 µM
[10]
  TGI: > 100 µM

## Cc1ccc(NC(=O)CC(=O)n2nc(C)c(N=Nc3cccc(C)c3)c2C)cc1
[1]
  TGI: > 100 µM
[2]
  TGI: > 100 µM
[3]
  TGI: > 100 µM
[4]
  TGI: > 100 µM
[5]
  TGI: > 100 µM
[6]
  TGI: > 100 µM
[7]
  TGI: > 100 µM
[8]
  TGI: > 100 µM
[9]
  TGI: > 100 µM
[10]
  TGI: > 100 µM

## COc1ccc(C2=NC(c3ccc(Cl)cc3)C(c3ccc(Cl)cc3)N2C(=O)N2CCNC(=O)C2)c(OC(C)C)c1 (stereo not drawn)
[1]
  GI50: 1.89 µM
  TGI: 3.55 µM
[2]
  GI50: 2.22 µM
  TGI: 5.61 µM
[3]
  GI50: 1.81 µM
  TGI: 3.2 µM
[4]
  GI50: 1.76 µM
  TGI: 3.29 µM
[5]
  GI50: 1.78 µM
  TGI: 3.33 µM
[6]
  GI50: 1.98 µM
  TGI: 3.89 µM
[7]
  GI50: 3.39 µM
  TGI: > 10 µM
[8]
  GI50: 2.46 µM
  TGI: 6.14 µM
[9]
  GI50: 2.27 µM
  TGI: 4.31 µM

## Cc1ccc(/C=C2/N=C(N/N=C\c3ccccc3)NC2=O)cc1
[2]
  TGI: > 100 µM
[3]
  TGI: > 100 µM
[4]
  TGI: > 100 µM
[5]
  TGI: > 100 µM
[6]
  TGI: > 100 µM
[7]
  TGI: 72.2 µM
[8]
  TGI: > 100 µM
[9]
  TGI: > 100 µM
[10]
  TGI: 45.6 µM

## N#Cc1nc(-c2cccc(-c3nc(C#N)c(N)o3)n2)oc1N
[1]
  TGI: > 100 µM
[2]
  TGI: > 100 µM
[3]
  TGI: > 100 µM
[4]
  TGI: > 100 µM
[5]
  TGI: > 100 µM
[6]
  TGI: > 100 µM
[7]
  TGI: > 100 µM
[8]
  TGI: > 100 µM
[9]
  TGI: > 100 µM
[10]
  TGI: > 100 µM

## CC(NC(=O)C(Cc1ccc(OC(=O)c2ccccc2)cc1)NC(=O)OC(C)(C)C)C(=O)NCC(=O)NC(Cc1ccccc1)C(=O)NN (stereo not drawn)
[1]
  TGI: > 100 µM
[2]
  TGI: > 100 µM
[3]
  TGI: > 100 µM
[4]
  TGI: > 100 µM
[5]
  TGI: 45 µM
[6]
  TGI: > 100 µM
[7]
  TGI: 69.4 µM
[8]
  TGI: > 100 µM
[9]
  TGI: > 100 µM
[10]
  TGI: > 100 µM

## Cc1ccc(S(=O)(=O)Nn2c(O)c(C#N)c(-c3ccc([N+](=O)[O-])cc3)c(C#N)c2=O)cc1
[1]
  TGI: > 100 µM
[2]
  TGI: > 100 µM
[3]
  TGI: > 100 µM
[4]
  TGI: > 100 µM
[5]
  TGI: > 100 µM
[6]
  TGI: > 100 µM
[7]
  TGI: > 100 µM
[8]
  TGI: > 100 µM
[9]
  TGI: > 100 µM

## C=C(C)[C@@H]1CC[C@]2(C(=O)NC(C)=O)CC[C@]3(C)[C@H](CC[C@@H]4[C@@]5(C)CCCNC(C)(C)[C@@H]5CC[C@]43C)[C@@H]12
[1]
  GI50: 1.53 µM
  TGI: 2.91 µM
[2]
  GI50: 1.61 µM
  TGI: 3.33 µM
[4]
  GI50: 1.69 µM
  TGI: 3.15 µM
[5]
  GI50: 1.18 µM
  TGI: 2.48 µM
[6]
  GI50: 1.82 µM
  TGI: 3.29 µM
[7]
  GI50: 1.4 µM
  TGI: 3.86 µM
[9]
  GI50: 1.63 µM
  TGI: 3.22 µM
[10]
  GI50: 1.4 µM
  TGI: 2.69 µM
